The target in test [1] is T1, Tyrosine-protein phosphatase non-receptor type 2 (Homo sapiens, UniProt P17706).
T1 sequence (P17706 whole entry): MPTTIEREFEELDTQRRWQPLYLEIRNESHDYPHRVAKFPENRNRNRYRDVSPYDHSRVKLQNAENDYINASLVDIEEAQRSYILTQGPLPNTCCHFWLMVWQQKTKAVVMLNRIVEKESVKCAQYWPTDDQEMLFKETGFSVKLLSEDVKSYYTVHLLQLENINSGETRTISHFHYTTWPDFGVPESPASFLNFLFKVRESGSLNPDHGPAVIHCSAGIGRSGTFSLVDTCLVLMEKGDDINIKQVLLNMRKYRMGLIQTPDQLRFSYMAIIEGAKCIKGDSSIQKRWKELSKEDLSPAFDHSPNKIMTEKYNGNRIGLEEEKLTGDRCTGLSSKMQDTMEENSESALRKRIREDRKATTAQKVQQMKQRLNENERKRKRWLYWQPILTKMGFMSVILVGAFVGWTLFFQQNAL
In words: Inhibition of TCPTP (unknown origin).

In test [2] the target is T2, Tyrosine-protein phosphatase non-receptor type 11 (Homo sapiens, UniProt Q06124).
T2 sequence (Q06124 whole entry): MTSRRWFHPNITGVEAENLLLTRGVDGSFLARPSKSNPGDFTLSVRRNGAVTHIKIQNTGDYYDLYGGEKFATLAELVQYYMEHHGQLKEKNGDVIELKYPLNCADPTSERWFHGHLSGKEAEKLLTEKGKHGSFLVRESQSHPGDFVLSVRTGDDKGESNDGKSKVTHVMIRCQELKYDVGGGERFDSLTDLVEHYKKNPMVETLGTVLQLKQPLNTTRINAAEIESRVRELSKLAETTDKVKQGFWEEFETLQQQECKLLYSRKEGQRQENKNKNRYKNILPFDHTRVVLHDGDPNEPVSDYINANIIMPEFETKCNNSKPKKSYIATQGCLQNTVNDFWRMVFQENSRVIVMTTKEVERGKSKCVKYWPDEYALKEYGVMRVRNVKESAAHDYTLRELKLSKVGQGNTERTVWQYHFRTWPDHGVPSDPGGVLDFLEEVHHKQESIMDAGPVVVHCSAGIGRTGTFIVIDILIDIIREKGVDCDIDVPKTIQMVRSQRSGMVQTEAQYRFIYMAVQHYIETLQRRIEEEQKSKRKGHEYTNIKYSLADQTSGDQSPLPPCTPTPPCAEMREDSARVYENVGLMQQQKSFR
The test is described as follows: Inhibition of SHP2 (unknown origin) using 3-O-Methylfluorescein phosphate as substrate preincubated for 3 mins followed by substrate addition.

For test [3], the target named is T3, Tyrosine-protein phosphatase non-receptor type 1 (Homo sapiens, UniProt P18031).
T3 sequence (P18031 whole entry): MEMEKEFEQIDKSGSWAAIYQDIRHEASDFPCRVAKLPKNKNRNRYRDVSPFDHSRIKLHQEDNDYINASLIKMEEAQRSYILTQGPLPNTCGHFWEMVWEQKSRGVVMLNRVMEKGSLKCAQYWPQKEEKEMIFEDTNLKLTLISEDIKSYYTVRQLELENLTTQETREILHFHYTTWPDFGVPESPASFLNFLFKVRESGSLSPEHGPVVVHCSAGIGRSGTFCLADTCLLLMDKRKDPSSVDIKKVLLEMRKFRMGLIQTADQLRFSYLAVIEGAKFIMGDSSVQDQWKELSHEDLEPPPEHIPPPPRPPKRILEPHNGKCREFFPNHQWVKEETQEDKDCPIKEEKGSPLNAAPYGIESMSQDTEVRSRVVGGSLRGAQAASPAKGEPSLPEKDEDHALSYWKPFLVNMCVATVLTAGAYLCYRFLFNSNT
The test is described as follows: Inhibition of GST-tagged PTP1B (unknown origin) using pNPP as substrate measured for 2 mins by spectrophotometry.

The target of test [4] is Receptor-type tyrosine-protein phosphatase F (Homo sapiens, UniProt P10586). The test is described as follows: Inhibition of LAR (unknown origin) using 3-O-Methylfluorescein phosphate as substrate preincubated for 3 mins followed by substrate addition.
The target of test [5] is Tyrosine-protein phosphatase non-receptor type 6 (Homo sapiens, UniProt P29350). The test is described as follows: Inhibition of SHP1 (unknown origin) using 3-O-Methylfluorescein phosphate as substrate preincubated for 3 mins followed by substrate addition.
The target in test [6] is T4, M-phase inducer phosphatase 2 (Homo sapiens, UniProt P30305).
T4 sequence (P30305 whole entry): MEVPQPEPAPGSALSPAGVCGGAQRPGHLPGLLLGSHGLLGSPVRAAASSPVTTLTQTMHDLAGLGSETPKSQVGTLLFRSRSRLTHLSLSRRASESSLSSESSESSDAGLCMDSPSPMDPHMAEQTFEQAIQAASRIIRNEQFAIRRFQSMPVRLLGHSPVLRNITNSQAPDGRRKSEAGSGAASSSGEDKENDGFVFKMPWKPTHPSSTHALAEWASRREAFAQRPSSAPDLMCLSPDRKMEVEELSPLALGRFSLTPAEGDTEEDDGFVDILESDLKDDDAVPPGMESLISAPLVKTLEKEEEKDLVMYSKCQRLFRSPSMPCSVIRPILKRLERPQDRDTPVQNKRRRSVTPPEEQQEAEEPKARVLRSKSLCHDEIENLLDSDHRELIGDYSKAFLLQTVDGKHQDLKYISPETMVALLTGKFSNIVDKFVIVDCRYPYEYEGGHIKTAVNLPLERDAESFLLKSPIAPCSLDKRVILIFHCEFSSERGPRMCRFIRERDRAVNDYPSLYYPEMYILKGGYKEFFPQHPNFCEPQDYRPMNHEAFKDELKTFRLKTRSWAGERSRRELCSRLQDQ
The test is described as follows: Inhibition of CDC25B (unknown origin) using 3-O-Methylfluorescein phosphate as substrate preincubated for 3 mins followed by substrate addition.

A value given as a limit tells only on which side of the number the result lay.

Tyrosine-protein phosphatase non-receptor type 6, sequence (P29350 whole entry): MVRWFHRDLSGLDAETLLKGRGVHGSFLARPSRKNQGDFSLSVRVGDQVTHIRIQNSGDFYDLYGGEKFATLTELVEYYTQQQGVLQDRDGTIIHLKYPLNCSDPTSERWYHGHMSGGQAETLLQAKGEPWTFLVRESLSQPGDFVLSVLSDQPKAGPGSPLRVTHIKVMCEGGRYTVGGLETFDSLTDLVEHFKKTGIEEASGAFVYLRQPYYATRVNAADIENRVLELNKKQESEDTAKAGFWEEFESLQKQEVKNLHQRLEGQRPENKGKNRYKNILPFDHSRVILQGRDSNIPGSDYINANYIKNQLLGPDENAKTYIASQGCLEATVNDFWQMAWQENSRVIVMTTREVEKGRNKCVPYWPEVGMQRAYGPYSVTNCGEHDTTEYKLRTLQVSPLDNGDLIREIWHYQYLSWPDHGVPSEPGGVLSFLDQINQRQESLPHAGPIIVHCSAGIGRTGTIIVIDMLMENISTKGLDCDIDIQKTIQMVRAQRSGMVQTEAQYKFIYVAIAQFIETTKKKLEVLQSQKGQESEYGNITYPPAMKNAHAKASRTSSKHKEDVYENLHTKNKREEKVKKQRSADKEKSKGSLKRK
Receptor-type tyrosine-protein phosphatase F, sequence (P10586 whole entry): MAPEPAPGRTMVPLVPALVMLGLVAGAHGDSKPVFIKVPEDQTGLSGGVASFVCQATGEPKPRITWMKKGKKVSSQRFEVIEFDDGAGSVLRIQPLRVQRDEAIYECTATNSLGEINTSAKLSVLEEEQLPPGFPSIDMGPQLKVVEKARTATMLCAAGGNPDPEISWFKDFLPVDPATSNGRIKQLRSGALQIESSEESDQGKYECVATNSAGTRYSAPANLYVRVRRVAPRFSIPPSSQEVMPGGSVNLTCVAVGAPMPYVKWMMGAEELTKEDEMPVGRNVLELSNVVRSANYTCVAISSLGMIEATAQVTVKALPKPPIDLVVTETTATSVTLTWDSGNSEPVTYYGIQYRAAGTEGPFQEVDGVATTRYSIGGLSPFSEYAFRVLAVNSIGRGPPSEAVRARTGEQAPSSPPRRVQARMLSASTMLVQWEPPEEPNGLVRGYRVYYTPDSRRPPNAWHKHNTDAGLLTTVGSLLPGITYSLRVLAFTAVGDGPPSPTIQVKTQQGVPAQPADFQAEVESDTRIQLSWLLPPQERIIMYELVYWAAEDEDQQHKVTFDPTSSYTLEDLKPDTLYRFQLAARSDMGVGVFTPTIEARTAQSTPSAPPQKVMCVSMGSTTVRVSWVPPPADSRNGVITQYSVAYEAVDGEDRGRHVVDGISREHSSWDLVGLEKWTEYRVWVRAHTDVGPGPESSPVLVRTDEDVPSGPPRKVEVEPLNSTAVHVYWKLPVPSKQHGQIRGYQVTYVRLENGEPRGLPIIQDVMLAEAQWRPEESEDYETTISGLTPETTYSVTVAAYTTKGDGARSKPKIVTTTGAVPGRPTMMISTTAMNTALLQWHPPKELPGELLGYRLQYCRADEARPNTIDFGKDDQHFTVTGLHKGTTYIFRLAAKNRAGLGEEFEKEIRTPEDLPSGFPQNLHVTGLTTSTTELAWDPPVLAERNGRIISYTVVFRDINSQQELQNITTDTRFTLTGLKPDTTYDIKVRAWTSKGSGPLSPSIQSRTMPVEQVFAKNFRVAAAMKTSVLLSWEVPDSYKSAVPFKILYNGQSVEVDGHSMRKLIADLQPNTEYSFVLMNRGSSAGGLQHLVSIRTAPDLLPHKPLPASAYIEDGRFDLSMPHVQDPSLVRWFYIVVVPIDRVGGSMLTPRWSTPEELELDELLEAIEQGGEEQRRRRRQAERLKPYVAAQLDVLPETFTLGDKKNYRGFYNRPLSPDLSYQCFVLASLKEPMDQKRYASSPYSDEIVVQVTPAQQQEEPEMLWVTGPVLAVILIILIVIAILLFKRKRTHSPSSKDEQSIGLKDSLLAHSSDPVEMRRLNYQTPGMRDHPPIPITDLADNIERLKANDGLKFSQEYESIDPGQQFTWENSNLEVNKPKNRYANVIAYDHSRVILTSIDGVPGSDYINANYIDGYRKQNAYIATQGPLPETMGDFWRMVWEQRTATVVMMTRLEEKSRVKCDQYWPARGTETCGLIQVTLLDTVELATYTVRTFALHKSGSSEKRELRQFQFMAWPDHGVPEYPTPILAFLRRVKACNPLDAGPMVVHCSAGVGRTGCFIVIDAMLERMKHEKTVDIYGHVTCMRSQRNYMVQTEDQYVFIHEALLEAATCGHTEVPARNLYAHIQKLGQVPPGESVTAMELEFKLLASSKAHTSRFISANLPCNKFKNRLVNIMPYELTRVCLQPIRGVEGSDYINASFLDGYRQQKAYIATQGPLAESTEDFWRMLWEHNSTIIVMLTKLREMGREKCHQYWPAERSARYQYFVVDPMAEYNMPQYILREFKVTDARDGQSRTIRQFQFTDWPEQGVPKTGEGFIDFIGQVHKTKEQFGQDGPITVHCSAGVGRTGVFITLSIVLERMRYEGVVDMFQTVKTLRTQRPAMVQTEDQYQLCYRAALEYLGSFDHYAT

As a reminder, the IC50 is the concentration that gives 50% inhibition. Regarding `C/C(=C/C(C)=C/c1csc([C@H](Cc2ccc(OCc3ccccc3)cc2)NC(=O)CCc2c[nH]c3ccccc23)n1)C(=O)OCC(=O)O`, the IC50 in test [1] was 8.72 µM; in test [2], 19.1 µM; in test [3], 2.32 µM; in test [4] it was more than 20 µM; in test [5], 15 µM; in test [6], 4.82 µM.

Regarding `C/C(=C/C(C)=C/c1csc([C@H](Cc2ccc(OCc3ccccc3)cc2)NC(=O)CCCc2c[nH]c3ccccc23)n1)C(=O)OCC(=O)O`, the 50% inhibitory concentration (IC50) in test [1] was 11.1 µM; in test [2], more than 20 µM; in test [3], 2.45 µM; in test [4] it was more than 20 µM; in test [5], more than 20 µM; in test [6], 4.38 µM.

The values above are taken from ChEMBL document CHEMBL3217607, “Discovery and structural modification of novel inhibitors of PTP1B inspired by the ACT fragment of scleritodermin A” (Medchemcomm, 2011).
